Test results from paper PMC4517612 (MedChemComm, 2015).
Values joined by “and” are separate entries in the source; they are usually repeats but may differ in a detail not shown here. Equal entries are not always repeated. Where two headings read alike, the source gives them in different places.

Tests used:
[1] = test system: CCI model of neuropathic pain (mechanoallodynia) in mice; conditions: 3 μmol/kg p.o., ref Tosh et al.[8], cited from earlier work
[2] = test system: CCI model of neuropathic pain (mechanoallodynia) in mice; assay: Mouse CCI model of neuropathic pain; assay type: in vivo; conditions: 3 μmol/kg p.o.; for duration of action in vivo (in words) / reversal of mechanoallodynia at 1 h (in words): CCI mice; for reversal of mechanoallodynia at 1 h (in words): 1 h after drug treatment
hA3AR = target: T1, hA3AR (Homo sapiens, UniProt P0DMS8); assay: Radioligand binding at hA3AR
T1 sequence (P0DMS8 1-318): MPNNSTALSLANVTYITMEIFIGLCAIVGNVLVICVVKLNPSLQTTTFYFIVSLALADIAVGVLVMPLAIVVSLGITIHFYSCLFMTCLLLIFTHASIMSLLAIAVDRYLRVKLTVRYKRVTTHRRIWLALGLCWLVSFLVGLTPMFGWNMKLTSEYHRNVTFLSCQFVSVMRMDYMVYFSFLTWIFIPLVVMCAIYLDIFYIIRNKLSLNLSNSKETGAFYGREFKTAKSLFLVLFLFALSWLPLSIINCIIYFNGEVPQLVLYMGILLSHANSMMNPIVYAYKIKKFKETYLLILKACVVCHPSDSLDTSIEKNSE

Row | Structure (SMILES) | duration of action in vivo (in words) [2] | reversal of mechanoallodynia at 1 h (in words) [2] | also measured
1 | CNC(=O)[C@@]12C[C@@H]1[C@@H](n1cnc3c(NC)nc(C#Cc4ccc(Cl)s4)nc31)[C@H](O)[C@@H]2O [Compound 2] |  |  | Effect at 3h (% ± SEM), pain protection [1]: 83% and 82.8 ± 11.2%; Max. effect Emax (% ± SEM), reversal of reduction in PWT of ipsilateral hind paw [1]: 93.3 ± 6.7%
2 | CNC(=O)[C@@]12C[C@@H]1[C@@H](n1cnc3c(NCc4cccc(Cl)c4)nc(C#Cc4ccc(F)c(F)c4)nc31)[C@H](O)[C@@H]2O [Compound 1] |  |  | Effect at 3h (% ± SEM), pain protection [1]: 24% and 23.7 ± 10.8%; Max. effect Emax (% ± SEM), reversal of reduction in PWT of ipsilateral hind paw [1]: 100 ± 0.0%
3 | CNC(=O)[C@@]12C[C@@H]1[C@@H](n1cnc3c(NC4CCC4)nc(-n4cc(-c5ccc(Cl)s5)nn4)nc31)[C@H](O)[C@@H]2O [Compound 16] | prolonged in activity |  | 
4 | CCNc1nc(-n2cc(-c3ccc(Cl)s3)nn2)nc2c1ncn2[C@H]1[C@H](O)[C@H](O)[C@]2(C(=O)NC)C[C@H]12 [Compound 15] |  | nearly completely reversed | 
5 | CNC(=O)[C@@]12C[C@@H]1[C@@H](n1cnc3c(NC)nc(-n4cc(-c5ccc(Br)s5)nn4)nc31)[C@H](O)[C@@H]2O [Compound 19] |  | nearly completely reversed | 
6 | CNC(=O)[C@@]12C[C@@H]1[C@@H](n1cnc3c(NCCc4ccccc4)nc(-n4cc(-c5ccc(Cl)s5)nn4)nc31)[C@H](O)[C@@H]2O [Compound 18] | prolonged in activity |  | 
7 | CNC(=O)[C@@]12C[C@@H]1[C@@H](n1cnc3c(NCc4cccc(Cl)c4)nc(-n4cc(-c5ccc(Cl)s5)nn4)nc31)[C@H](O)[C@@H]2O [Compound 17] | nearly full protection up to 4 h |  | Effect at 3h (% ± SEM), pain protection ([2]; day 7 after CCI, mice, 3 h after administration): > 90%
8 | CNC(=O)[C@@]12C[C@@H]1[C@@H](n1cnc3c(NC)nc(-n4cc(-c5cnn(C)c5)nn4)nc31)[C@H](O)[C@@H]2O [Compound 11] |  | nearly completely reversed | 
9 | CNC(=O)[C@@]12C[C@@H]1[C@@H](n1cnc3c(NC)nc(-n4cc(-c5ncccn5)nn4)nc31)[C@H](O)[C@@H]2O [Compound 9] |  | nearly completely reversed | ligand efficiency with respect to A3AR affinity (hA3AR): 0.27
